“And” between values parts separate entries of the source, which are not always exact repeats. Equal entries are not always repeated.
Target: T1, NS3 protease (dengue virus type 4, UniProt A0A0K0TQ36)
T1 sequence (A0A0K0TQ36 whole entry): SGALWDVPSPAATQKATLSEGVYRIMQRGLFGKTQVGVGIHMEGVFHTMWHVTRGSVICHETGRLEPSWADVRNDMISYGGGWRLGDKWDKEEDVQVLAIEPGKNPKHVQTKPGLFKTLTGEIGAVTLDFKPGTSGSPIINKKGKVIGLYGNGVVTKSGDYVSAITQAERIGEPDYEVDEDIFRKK
Test: Functional biochemical assay to identify treatments for viral infectious disease that targets Dengue virus type 4 NS2B-NS3 protease. Utilizing a direct enzyme activity measurement method, reading the fluorescence intensity is used to characterize the relative potency of inhibitors as IC50.
Set-up: species or system Philippines/H241/1956

| Compound | IC50 |
| --- | --- |
| N=C(N)NCCC[C@H](NC(=O)c1nccs1)C(=O)N[C@@H](CCCCN)C(=O)N[C@@H](C(N)=O)c1ccc(OCc2ccc(C(F)(F)F)cc2)cc1 | 2.58 µM and 1.74 µM and 2.67 µM and 1.47 µM and 1.14 µM and 1.86 µM and 1.06 µM |
| N=C(N)NCCC[C@H](NC(=O)[C@H](Cc1ccc(CN)cc1)NC(=O)c1ccccc1)B(O)O | 0.793 µM and 0.503 µM |
| COCCNC(=O)[C@H](Nc1ccc2c(c1)CNC2)c1cc(Cl)cc(C2CC2)c1 | > 99.5 µM |
| O=C(NCC(F)F)[C@H](Nc1ccc2c(c1)CNC2)c1cc(Cl)cc(C2CC2)c1 | > 99.5 µM |
| O=C(Nc1ccc2c(c1)CNCC2)c1cc(Cl)cc2[nH]ncc12 | > 99.5 µM |
| CC(C)(C)c1cc(Br)cc(C(=O)Nc2ccc3c(c2)CNC3)c1 | > 99.5 µM |
| Clc1ccc2[nH]cc(Cc3ccc(-c4nn[nH]n4)cc3)c2c1 | 99.1 µM |
| CN1Cc2ccc(NC(=O)c3cc(Cl)cc4[nH]ncc34)cc2C1 | > 99.5 µM |
| O=C(Nc1ccc2c(c1)CNC2)c1cccc(-c2cnco2)c1 | 23.3 µM |
| CC(C)NC(=O)[C@H](Nc1ccc2c(c1)CNC2)c1cc(Cl)cc2[nH]ncc12 | 49.8 µM |
| Cn1cc2cc(Cl)cc(C(=O)Nc3ccc4c(c3)CNC4)c2n1 | > 99.5 µM |
| O=C(Nc1ccc2c(c1)CNC2)c1cc(Br)cc2ccccc12 | > 99.5 µM |
| O=C(Nc1ccc2c(c1)CNC2)c1cc(Cl)cc2c1CCC2 | > 99.5 µM |
| CNC(=O)[C@H](Nc1ccc2c(c1)CNC2)c1cc(Cl)cc(C2CC2)c1 | > 99.5 µM |
| O=C1Cc2c(cccc2C(=O)Nc2ccc3c(c2)CNC3)N1 | 15.1 µM |
| O=C(Nc1ccc2c(c1)CNC2)c1cc(Br)cc2[nH]c(-c3ccccc3)nc12 | 2.96 µM |
| N#C[C@H](Nc1ccc2c(c1)CNC2)c1cc(Cl)cc(C2CC2)c1 | > 99.5 µM |
| O=C(Nc1cc(Cl)cc([C@H]2CN(Cc3ccccc3)C[C@@H]2c2cccc(-c3nn[nH]n3)c2)c1)OCc1ccccc1 | 6.83 µM |
| Clc1cc(CNc2ccc3c(c2)CNC3)c2cn[nH]c2c1 | 38.8 µM |
| CC(C)c1cc(Br)cc(C(=O)Nc2ccc3c(c2)CNC3)c1 | > 99.5 µM |
| O=C(NC1CCOCC1)[C@H](Nc1ccc2c(c1)CNC2)c1cc(Cl)cc(C2CC2)c1 | > 99.5 µM |
| Cn1cc(CNC(=O)[C@H](Nc2ccc3c(c2)CNC3)c2cc(Cl)cc(C3CC3)c2)cn1 | > 99.5 µM |
| O=C(Nc1cc(Cl)cc(C(=O)Nc2ccc3c(c2)CNC3)c1)OCc1ccccc1 | 91.3 µM |
| Cn1cc(CCc2nc3c(C(=O)Nc4ccc5c(c4)CNC5)cc(Cl)cc3[nH]2)cn1 | 26.4 µM |
| O=C(Nc1ccc2c(c1)CNC2)c1cc(F)cc2[nH]ncc12 | > 99.5 µM |

| Compound | IC50 |
| --- | --- |
| Cc1c(C(=O)Nc2cc([C@H]3CCOC3)ccn2)cc(C2CC2)n1C | > 99.5 µM |
| O=C(Nc1ccc2c(c1)CNC2)c1cc(Cl)cc2ccncc12 | > 99.5 µM |
| O=C1Cc2c(cc(Br)cc2C(=O)Nc2ccc3c(c2)CNC3)N1 | 87.9 µM |
| CC(C)NC(=O)[C@H](Nc1ccc2c(c1)CNC2)c1cc(Cl)cc2[nH]c(-c3ccccc3)nc12 | 14.6 µM and 4.38 µM |
| O=C(Nc1cc(Cl)cc([C@H](C#CCO)Nc2cccc(-c3nn[nH]n3)c2)c1)OCc1ccccc1 | 15.9 µM |
| NCCc1csc2cc(C(=O)Nc3cc([C@H]4CCOC4)ccn3)ccc12 | > 99.5 µM |
| O=C(Nc1ccc2c(c1)CNC2)c1cccc2[nH]c(C(F)(F)F)cc12 | > 99.5 µM |
| O=C(Nc1ccc2c(c1)CNC2)c1cc(Cl)cc2cn[nH]c12 | > 99.5 µM |
| N#Cc1cccc(-c2nc3c(C(=O)Nc4ccc5c(c4)CNC5)cc(F)cc3[nH]2)c1 | 2.86 µM |
| NCc1cccc([C@H]2C[C@@H]2c2cc(Cl)cc(NC(=O)OCc3ccccc3)c2)c1 | 7.94 µM |
| C=CC[C@H]1NCc2cc(NC(=O)c3cccc4c3CC(=O)N4)ccc21 | > 99.5 µM |
| N#C[C@H](Nc1cccc(-c2nn[nH]n2)c1)c1cc(Cl)cc(NC(=O)OCc2ccccc2)c1 | 12.4 µM |
| O=C(Nc1ccc2c(c1)CNC2)c1cc(Cl)cc2[nH]ncc12 | > 99.5 µM |
| O=C(Nc1ccc2c(c1)CNC2)c1ccc2[nH]cc(C3CCNCC3)c2c1 | 36.7 µM |
| O=C(Nc1ccc2c(c1)CNC2)c1cc(Br)cc2[nH]c(=O)[nH]c12 | 38.7 µM |
| N#C[C@H](Nc1ccc2c(c1)CNC2)c1cc(Cl)cc2[nH]ncc12 | > 99.5 µM |
| O=C(Nc1cc(Cl)cc(C(=O)Nc2cccc([C@H]3C[C@H]3C(=O)O)c2)c1)OCc1ccccc1 | 32.8 µM |
| Clc1cc([C@@H]2C[C@H]2c2cccc(C3CCNCC3)c2)c2cn[nH]c2c1 | 5.84 µM |
| Cc1c(C(=O)Nc2cc(-c3cccnc3)ccn2)cc(C2CC2)n1C | 6.83 µM |
| O=C(NCC(F)F)[C@H](Nc1ccc2c(c1)CNC2)c1cc(F)cc2[nH]ccc12 | > 99.5 µM |
| CC(C)c1nnc(-c2nc3c(C(=O)Nc4ccc5c(c4)CNC5)cc(F)cc3[nH]2)s1 | 9.86 µM |
| C=CC[C@H]1NCc2cc(NC(=O)c3cc(Cl)cc4[nH]ncc34)ccc21 | > 99.5 µM |
| Cc1nc2c(C(=O)Nc3ccc4c(c3)CNC4)cc(Cl)cc2[nH]1 | 26.7 µM |
| O=C(Nc1cc(Cl)cc(-c2ccc3[nH]c(C(=O)O)cc3c2)c1)OCc1ccccc1 | 6.92 µM |
| O=C(NCCC1CC1)[C@H](Nc1ccc2c(c1)CNC2)c1cc(Cl)cc(C2CC2)c1 | > 99.5 µM |

| Compound | IC50 |
| --- | --- |
| NCc1cccc(-c2csc3cc(C(=O)Nc4ccc5c(c4)CNC5)ccc23)c1 | 43.7 µM |
| N#Cc1cc2c(cc1NC(=O)c1cc(F)cc3[nH]ncc13)CNC2 | 36.9 µM |
| O=C(Nc1ccc2c(c1)CNC2)c1cc(Cl)cc2cc[nH]c12 | > 99.5 µM |
| C=CC[C@H]1NCc2cc(NC(=O)c3cc(F)cc4[nH]ncc34)ccc21 | > 99.5 µM |
| O=C(Nc1cc(Br)c2c(c1)CNC2)c1cc(F)cc2[nH]ncc12 | > 99.5 µM |
| C=CC[C@H](Nc1cc(Cl)cc(NC(=O)OCc2ccccc2)c1)c1cccc(-c2nn[nH]n2)c1 | 7.78 µM |
| CNC(=O)[C@H](Nc1cc(CN)cc(C(=O)O)c1)c1cc(Cl)cc(C2CC2)c1 | > 99.5 µM |
| O=C(NCC(F)F)[C@H](Nc1ccc2c(c1)CNC2)c1cc(F)cc2[nH]ncc12 | > 99.5 µM |
| O=C1Cc2c(cc(F)cc2C(=O)Nc2ccc3c(c2)CNC3)N1 | 53.7 µM |
| O=C(Nc1cc(Cl)cc([C@H]2C[C@@H]2c2cccc(C3CCNCC3)c2)c1)OCc1ccccc1 | 5.51 µM |
| O=C(Nc1ccc2c(c1)CNC2)c1ccc2c(C3=CCNCC3)csc2c1 | 70 µM |
| CC(C)CNC(=O)c1cc(Cl)ccc1NS(=O)(=O)c1ccc(Oc2ccccc2Cl)cc1 | 15 µM |
| C=CC[C@H]1NCc2cc(N[C@H](C(=O)NC(C)C)c3cc(Cl)cc4[nH]ncc34)ccc21 | > 99.5 µM |
| O=C(Nc1ccc2c(c1)CNC2)c1cc(F)cc2[nH]c(-c3ccccc3F)nc12 | 5.23 µM |
| O=C(NC1CCOCC1)[C@H](Nc1ccc2c(c1)CNC2)c1cc(Cl)cc2[nH]ncc12 | 43.9 µM |
| CNC(=O)[C@H](Nc1cc(Cl)cc(NC(=O)OCc2ccccc2)c1)c1cccc(-c2nn[nH]n2)c1 | 61.6 µM |
| O=C(Nc1ccc2c(c1)CNC2)c1cc(F)c2[nH]ccc2c1 | > 99.5 µM |
| N[C@H]1CC[C@H](c2ccc(NC(=O)c3cc(Cl)cc(NC(=O)OCc4ccccc4)c3)cc2)C1 | 7.64 µM |
| Cn1c(=O)[nH]c2c(C(=O)Nc3ccc4c(c3)CNC4)cc(Br)cc21 | > 99.5 µM |
| OCC#C[C@H](Nc1ccc2c(c1)CNC2)c1cc(Cl)cc2[nH]ncc12 | 22.3 µM |
| O=C(Nc1ccc2c(c1)CNC2)c1cc(F)cc2c1CCC2 | > 99.5 µM |
| NCc1cccc(NC(=O)c2cc(Cl)cc(NC(=O)OCc3ccccc3)c2)c1 | 34.6 µM |
| c1cc(C2CCN(Cc3c[nH]c4ccccc34)CC2)c2ccncc2c1 | > 99.5 µM |
| Cc1cccc(-c2nc3c(C(=O)Nc4ccc5c(c4)CNC5)cc(Cl)cc3[nH]2)c1O | 3.54 µM |
| CNC(=O)[C@H](Nc1cccc(CN)c1)c1cc(Cl)cc(NC(=O)OCc2ccccc2)c1 | > 99.5 µM |

| Compound | IC50 |
| --- | --- |
| O=C(Nc1ccc2c(c1)CNC2)c1cccc2[nH]c(=O)[nH]c12 | 74.5 µM |
| O=C(Nc1ccc2c(c1)CNC2)c1cc(Cl)cc(C(F)(F)F)n1 | 23 µM |
| O=C(Nc1ccc2c(c1)CNC2)c1cc(F)cc2[nH]c(-c3ccc(F)cc3)nc12 | 3.65 µM |
| CCc1cc(C(=O)Nc2cccc(-n3nn[nH]c3=O)c2)sc1-c1ccc(Cl)cc1 | 13.1 µM |
| Cc1c(C(=O)Nc2cc(CCCN)ccn2)cc(C2CC2)n1C | 39.2 µM |
| O=C(Nc1ccc2c(c1)CNC2)c1cccc2nc(O)ccc12 | > 99.5 µM |
| NCc1ccc([C@H]2C[C@@H]2c2cc(Cl)cc(NC(=O)OCc3ccccc3)c2)cc1 | 6.87 µM |
| COc1cc(-c2cc(NC(=O)c3cc(F)cc4[nH]ncc34)cc3c2CNC3)ccn1 | 42.5 µM |
| CCOCCNC(=O)[C@H](Nc1ccc2c(c1)CNC2)c1cc(Cl)cc2[nH]ncc12 | > 99.5 µM |
| O=C(Nc1cc(Cl)cc(C(=O)Nc2ccc3c(c2)CCNC3)c1)OCc1ccccc1 | 32.1 µM |
| CC(C)(c1nc2c(C(=O)Nc3ccc4c(c3)CNC4)cc(F)cc2[nH]1)S(C)(=O)=O | 18 µM |
| O=C1Cc2cc(C(=O)Nc3ccc4c(c3)CNC4)ccc2N1 | 14 µM and 8.21 µM |
| NCCc1csc2cc(C(=O)Nc3ccc4c(c3)CNC4)ccc12 | > 99.5 µM |
| Cc1ccc(NC(=O)c2cc(Cl)cc(NC(=O)OCc3ccccc3)c2)cc1CN | 70.7 µM |
| O=C(Nc1ccc2c(c1)CNC2)c1cc(F)cc2[nH]c(-c3ccccc3)nc12 | 5.41 µM |
| O=C(Nc1ccc2c(c1)CNC2)c1cc(Cl)cc2nn(-c3ccccc3)nc12 | 5.25 µM |
| Cc1[nH]c2ccccc2c1CN1CCC(c2c[nH]c3ncccc23)CC1 | > 99.5 µM |
| O=C(Nc1ccc2c(c1)CNC2)c1cccc2cn[nH]c12 | 45 µM |
| O=C(Nc1cc2c(cc1Br)CNC2)c1cc(F)cc2[nH]ncc12 | > 99.5 µM |
| O=C(Nc1ccc2c(c1)CNC2)c1ccc2[nH]ccc2c1 | > 99.5 µM |
| O=C(Nc1cc2c(c(C3=CCS(=O)(=O)CC3)c1)CNC2)c1cc(F)cc2[nH]ncc12 | 50 µM |
| CNC(=O)[C@H](Nc1cc(CN)cc(-c2nn[nH]n2)c1)c1cc(Cl)cc(C2CC2)c1 | > 99.5 µM |
| O=C(Nc1cc2c(c(C3=CCOCC3)c1)CNC2)c1cc(F)cc2[nH]ncc12 | 29.9 µM |
| O=C(Nc1cc(Cl)cc(C(=O)Nc2cccc(-n3nn[nH]c3=O)c2)c1)OCc1ccccc1 | 13.9 µM |

Reference: ChEMBL document CHEMBL5604066, “ASAP - DENV-4 NS2B-NS3 protease fluorescence dose response” (2024)
